We go through one compound from paper PMC6382704, “LPM580098, a Novel Triple Reuptake Inhibitor of Serotonin, Noradrenaline, and Dopamine, Attenuates Neuropathic Pain” (Frontiers in Pharmacology, 2019).

Assay [1] has as its target T1, SERT (serotonin transporter) (Homo sapiens, UniProt P31645).
T1 construct: gene SLC6A4
Nature of the assay: radioligand displacement of [3H]imipramine, CHO cell membranes. On the technique in general: Displacement assays read how much labelled ligand stays bound in the presence of the test substance.

Assay [2] concerns the target T2, NET (norepinephrine transporter) (Homo sapiens, UniProt P23975).
T2 construct: gene SLC6A2
The assay is described as follows: radioligand displacement of [3H]nisoxetine, CHO cell membranes.

Assay [3] concerns the target T3, DAT (dopamine transporter) (Homo sapiens, UniProt Q01959).
T3 construct: gene SLC6A3
The assay is described as follows: radioligand displacement of [3H]BTCP, CHO cell membranes.

T2 sequence (P23975 whole entry): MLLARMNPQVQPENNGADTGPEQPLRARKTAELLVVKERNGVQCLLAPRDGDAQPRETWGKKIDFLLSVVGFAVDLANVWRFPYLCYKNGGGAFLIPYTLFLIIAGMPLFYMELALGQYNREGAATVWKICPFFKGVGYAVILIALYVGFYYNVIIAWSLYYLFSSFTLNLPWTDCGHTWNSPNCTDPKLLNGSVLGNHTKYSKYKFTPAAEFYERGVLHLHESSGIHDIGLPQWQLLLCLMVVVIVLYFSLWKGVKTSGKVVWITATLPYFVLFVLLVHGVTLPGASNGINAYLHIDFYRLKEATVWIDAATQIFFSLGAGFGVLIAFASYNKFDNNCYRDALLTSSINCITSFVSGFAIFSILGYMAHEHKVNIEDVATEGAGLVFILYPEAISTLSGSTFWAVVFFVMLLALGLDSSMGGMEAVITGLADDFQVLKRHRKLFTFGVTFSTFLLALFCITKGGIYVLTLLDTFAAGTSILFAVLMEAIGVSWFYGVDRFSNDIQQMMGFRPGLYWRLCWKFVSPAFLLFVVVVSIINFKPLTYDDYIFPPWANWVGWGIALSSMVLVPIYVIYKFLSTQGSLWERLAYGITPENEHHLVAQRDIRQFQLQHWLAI
T1 sequence (P31645 whole entry): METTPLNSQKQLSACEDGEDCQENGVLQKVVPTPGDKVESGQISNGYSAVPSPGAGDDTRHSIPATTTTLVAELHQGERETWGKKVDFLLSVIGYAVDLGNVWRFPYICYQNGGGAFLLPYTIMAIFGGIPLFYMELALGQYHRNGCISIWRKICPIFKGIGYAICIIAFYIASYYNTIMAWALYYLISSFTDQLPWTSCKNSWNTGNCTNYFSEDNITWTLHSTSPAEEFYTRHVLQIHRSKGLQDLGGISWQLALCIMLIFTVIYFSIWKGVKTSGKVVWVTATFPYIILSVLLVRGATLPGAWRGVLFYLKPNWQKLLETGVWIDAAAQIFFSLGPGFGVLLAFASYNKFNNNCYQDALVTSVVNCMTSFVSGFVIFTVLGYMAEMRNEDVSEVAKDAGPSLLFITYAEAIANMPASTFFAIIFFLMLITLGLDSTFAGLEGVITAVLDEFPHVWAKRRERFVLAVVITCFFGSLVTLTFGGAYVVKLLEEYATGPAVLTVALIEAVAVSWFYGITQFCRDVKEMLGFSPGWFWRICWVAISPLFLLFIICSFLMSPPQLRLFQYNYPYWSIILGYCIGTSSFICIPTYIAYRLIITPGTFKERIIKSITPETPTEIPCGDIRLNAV
T3 sequence (Q01959 whole entry): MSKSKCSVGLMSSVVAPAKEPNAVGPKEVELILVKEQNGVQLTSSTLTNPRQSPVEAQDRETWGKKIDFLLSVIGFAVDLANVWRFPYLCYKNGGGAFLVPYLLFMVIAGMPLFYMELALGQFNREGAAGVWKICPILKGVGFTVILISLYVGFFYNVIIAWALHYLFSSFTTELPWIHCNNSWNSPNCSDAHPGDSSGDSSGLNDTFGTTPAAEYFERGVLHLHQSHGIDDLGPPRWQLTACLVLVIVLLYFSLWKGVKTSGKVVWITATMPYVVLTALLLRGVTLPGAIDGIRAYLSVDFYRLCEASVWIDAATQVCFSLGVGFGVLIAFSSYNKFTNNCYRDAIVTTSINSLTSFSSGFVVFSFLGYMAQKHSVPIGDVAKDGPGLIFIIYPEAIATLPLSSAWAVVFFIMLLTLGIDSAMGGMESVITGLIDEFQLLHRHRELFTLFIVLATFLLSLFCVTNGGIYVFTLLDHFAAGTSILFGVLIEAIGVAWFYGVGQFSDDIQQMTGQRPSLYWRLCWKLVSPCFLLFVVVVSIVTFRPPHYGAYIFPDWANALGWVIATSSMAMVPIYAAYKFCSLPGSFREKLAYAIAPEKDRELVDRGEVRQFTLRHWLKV

With `CN(C)CC(c1ccc(Oc2ccccc2)cc1)C1(O)CCCCC1` (stereo not drawn) [LPM580098, 1-[2-(dimethylamino)-1-(4-phenoxyphenyl)ethyl] cyclohexanol], the inhibition (commonly the drop in the measured response relative to a control, in per cent) at 10 µM in assay [1] was found to be 90.3%; in assay [2], 45%; in assay [3], 77.5%.
